Read-outs that look alike come from different tables or passages of the source.
Key:
Type in all cases: biochemical
[1] = target: 320 wild-type protein kinases (Homo sapiens, UniProt P19525); settings: singlicate
Excerpt: (§1) Table S4. Profiling of two compounds at two concentrations against 320 wild-type protein kinases; singlicate measurement; Residual activities (% of control).

[2] = target: 320 wild-type protein kinases (Homo sapiens, UniProt Q86Y07); settings: kinase VRK2, singlicate
Excerpt: as §1

[3] = target: T1, 320 wild-type protein kinases (Homo sapiens, UniProt Q9HBY8); settings: kinase SGK2, singlicate
T1 sequence (Q9HBY8 1-367): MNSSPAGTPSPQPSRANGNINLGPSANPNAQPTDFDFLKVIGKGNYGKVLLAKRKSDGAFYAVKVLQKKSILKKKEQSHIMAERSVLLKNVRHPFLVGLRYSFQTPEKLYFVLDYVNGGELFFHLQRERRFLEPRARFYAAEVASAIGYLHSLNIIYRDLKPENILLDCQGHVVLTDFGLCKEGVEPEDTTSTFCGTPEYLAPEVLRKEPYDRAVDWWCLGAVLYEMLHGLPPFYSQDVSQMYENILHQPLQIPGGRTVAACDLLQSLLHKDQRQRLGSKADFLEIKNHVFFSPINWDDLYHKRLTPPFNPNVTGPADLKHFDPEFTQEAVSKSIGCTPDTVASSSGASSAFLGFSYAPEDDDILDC
Excerpt: as §1

[4] = target: 320 wild-type protein kinases (Homo sapiens, UniProt P07333); settings: CSF1-R, singlicate
Excerpt: as §1

[5] = target: 320 wild-type protein kinases (Homo sapiens, UniProt Q04912); settings: kinase RON, singlicate
Excerpt: as §1

[6] = target: T2, 320 wild-type protein kinases (Homo sapiens, UniProt P29322); settings: singlicate
T2 sequence (P29322 28-1005): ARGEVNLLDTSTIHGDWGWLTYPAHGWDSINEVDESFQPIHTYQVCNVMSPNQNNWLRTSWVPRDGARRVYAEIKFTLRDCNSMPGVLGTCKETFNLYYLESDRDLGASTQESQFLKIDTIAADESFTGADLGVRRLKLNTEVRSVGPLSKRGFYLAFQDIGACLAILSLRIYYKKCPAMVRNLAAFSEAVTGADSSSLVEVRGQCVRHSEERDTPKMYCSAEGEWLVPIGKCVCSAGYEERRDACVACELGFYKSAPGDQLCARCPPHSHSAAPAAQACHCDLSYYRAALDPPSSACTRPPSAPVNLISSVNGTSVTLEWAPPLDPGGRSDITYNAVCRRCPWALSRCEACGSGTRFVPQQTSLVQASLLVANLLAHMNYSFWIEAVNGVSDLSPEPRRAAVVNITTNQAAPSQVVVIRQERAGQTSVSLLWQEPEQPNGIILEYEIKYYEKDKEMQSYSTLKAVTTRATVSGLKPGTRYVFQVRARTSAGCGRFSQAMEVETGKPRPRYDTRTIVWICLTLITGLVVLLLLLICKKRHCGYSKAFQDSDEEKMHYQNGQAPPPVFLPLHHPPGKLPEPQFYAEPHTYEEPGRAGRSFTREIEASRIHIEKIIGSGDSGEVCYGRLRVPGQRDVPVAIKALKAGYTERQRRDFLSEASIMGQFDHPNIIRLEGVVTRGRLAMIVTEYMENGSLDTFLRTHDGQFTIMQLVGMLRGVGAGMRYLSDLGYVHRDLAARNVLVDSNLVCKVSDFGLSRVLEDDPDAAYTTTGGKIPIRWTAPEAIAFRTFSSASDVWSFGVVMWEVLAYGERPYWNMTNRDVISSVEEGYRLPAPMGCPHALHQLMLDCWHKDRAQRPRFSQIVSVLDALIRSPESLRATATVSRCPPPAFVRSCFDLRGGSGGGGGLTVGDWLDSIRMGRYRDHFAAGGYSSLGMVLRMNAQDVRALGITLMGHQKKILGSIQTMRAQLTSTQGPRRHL
Excerpt: as §1

[7] = target: 320 wild-type protein kinases (Homo sapiens, UniProt P10721); settings: KIT, singlicate
Excerpt: as §1

[8] = target: T3, 320 wild-type protein kinases (Homo sapiens, UniProt Q96BR1); settings: kinase SGK3, singlicate
T3 sequence (Q96BR1 1-496): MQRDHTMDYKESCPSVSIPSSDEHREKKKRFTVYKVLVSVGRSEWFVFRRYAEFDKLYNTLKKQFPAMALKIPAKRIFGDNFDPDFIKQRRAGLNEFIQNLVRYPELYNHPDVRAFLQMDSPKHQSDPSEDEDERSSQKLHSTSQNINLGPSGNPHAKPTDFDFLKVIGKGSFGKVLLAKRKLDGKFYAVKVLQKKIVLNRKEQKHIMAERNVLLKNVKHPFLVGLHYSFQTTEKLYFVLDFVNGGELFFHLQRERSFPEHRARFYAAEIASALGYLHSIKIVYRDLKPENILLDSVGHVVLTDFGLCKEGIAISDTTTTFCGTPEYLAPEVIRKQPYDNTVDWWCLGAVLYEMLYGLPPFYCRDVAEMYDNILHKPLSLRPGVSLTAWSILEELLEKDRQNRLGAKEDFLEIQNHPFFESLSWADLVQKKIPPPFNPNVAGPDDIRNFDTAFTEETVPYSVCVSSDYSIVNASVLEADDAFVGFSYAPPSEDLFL
Excerpt: as §1

[9] = target: 320 wild-type protein kinases (Homo sapiens, UniProt P42684); settings: singlicate
Excerpt: as §1

[10] = target: 320 wild-type protein kinases (Homo sapiens, UniProt Q9NYL2); settings: kinase ZAK, singlicate
Excerpt: as §1

[11] = target: 320 wild-type protein kinases (Homo sapiens, UniProt Q00534); settings: singlicate
Excerpt: as §1

Sequence of 320 wild-type protein kinases (Homo sapiens, UniProt Q9NYL2) (Q9NYL2 whole entry): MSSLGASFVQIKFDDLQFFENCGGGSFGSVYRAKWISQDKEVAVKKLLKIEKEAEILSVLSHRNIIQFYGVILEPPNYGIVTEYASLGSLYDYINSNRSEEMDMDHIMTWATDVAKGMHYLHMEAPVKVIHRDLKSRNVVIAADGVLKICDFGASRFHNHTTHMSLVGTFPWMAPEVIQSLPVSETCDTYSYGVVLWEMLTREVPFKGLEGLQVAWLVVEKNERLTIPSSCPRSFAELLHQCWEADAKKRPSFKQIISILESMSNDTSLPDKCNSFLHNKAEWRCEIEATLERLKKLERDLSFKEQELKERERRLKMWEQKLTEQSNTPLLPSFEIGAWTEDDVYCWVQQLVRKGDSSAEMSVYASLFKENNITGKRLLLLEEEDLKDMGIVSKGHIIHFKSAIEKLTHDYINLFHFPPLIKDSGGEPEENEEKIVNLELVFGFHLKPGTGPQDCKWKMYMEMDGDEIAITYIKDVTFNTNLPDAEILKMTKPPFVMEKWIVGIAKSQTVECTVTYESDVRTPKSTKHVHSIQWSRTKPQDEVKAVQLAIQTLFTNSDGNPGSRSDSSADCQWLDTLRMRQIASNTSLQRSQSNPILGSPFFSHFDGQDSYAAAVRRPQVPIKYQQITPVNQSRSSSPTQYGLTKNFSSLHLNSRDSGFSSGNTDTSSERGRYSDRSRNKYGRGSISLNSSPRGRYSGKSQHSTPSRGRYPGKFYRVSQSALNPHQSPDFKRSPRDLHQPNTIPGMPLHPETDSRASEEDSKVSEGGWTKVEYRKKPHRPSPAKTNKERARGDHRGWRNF
Sequence of 320 wild-type protein kinases (Homo sapiens, UniProt Q86Y07) (Q86Y07 whole entry): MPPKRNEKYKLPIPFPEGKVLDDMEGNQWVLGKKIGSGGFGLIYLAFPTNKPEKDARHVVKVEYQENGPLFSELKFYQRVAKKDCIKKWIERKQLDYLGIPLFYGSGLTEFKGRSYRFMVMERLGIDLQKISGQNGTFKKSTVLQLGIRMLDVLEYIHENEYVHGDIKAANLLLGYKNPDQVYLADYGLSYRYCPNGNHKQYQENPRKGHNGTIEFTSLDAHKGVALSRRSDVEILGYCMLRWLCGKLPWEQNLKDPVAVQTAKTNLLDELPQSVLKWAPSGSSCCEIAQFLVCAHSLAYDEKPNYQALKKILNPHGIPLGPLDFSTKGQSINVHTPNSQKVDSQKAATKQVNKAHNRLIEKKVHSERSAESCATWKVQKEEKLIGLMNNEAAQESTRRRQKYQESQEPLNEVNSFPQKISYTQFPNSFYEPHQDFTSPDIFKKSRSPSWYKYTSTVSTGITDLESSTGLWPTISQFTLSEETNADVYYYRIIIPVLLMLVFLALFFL
Sequence of 320 wild-type protein kinases (Homo sapiens, UniProt Q00534) (Q00534 whole entry): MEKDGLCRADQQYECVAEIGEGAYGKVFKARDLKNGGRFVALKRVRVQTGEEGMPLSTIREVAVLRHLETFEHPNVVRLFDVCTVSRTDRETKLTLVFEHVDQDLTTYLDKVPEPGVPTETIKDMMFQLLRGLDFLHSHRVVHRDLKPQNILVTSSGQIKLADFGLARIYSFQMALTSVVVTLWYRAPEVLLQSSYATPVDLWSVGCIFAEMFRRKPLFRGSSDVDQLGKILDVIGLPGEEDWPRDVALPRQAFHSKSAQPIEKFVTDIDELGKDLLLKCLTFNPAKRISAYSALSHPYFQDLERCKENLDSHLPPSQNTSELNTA
Sequence of 320 wild-type protein kinases (Homo sapiens, UniProt Q04912) (Q04912 25-1400): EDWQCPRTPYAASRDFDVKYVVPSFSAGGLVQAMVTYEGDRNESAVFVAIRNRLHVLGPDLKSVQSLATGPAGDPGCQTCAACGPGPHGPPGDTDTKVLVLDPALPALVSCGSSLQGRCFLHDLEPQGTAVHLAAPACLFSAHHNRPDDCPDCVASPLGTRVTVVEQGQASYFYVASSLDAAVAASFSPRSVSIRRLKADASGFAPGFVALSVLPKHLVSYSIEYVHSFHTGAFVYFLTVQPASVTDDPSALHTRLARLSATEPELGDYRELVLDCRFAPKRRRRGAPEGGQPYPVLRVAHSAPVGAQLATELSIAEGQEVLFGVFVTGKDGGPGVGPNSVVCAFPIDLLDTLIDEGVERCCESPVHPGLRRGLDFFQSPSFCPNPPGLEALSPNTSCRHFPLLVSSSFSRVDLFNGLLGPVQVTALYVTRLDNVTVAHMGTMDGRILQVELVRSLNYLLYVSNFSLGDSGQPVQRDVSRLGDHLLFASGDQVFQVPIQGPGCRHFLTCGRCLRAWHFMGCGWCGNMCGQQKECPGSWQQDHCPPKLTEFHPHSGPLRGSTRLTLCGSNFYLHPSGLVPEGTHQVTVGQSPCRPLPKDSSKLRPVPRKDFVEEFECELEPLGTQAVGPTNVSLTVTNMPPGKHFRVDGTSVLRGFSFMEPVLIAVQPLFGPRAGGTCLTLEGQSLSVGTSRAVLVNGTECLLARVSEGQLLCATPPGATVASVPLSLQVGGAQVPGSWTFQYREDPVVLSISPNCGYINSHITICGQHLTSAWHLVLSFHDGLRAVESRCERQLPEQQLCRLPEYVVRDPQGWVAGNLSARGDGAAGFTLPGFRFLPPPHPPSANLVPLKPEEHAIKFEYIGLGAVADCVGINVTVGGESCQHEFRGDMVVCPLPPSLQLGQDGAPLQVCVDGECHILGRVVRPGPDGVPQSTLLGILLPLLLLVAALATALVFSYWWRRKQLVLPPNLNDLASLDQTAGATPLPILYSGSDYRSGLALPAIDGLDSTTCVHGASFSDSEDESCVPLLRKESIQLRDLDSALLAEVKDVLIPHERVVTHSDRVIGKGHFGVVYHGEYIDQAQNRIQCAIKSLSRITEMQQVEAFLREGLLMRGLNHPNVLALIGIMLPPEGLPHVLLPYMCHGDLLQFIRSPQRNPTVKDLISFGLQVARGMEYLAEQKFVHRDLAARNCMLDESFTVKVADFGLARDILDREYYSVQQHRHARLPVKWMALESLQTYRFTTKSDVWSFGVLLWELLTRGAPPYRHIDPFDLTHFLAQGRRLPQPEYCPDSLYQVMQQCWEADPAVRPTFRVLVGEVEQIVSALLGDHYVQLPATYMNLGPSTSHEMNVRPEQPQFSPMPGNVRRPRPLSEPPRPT
Sequence of 320 wild-type protein kinases (Homo sapiens, UniProt P19525) (P19525 whole entry): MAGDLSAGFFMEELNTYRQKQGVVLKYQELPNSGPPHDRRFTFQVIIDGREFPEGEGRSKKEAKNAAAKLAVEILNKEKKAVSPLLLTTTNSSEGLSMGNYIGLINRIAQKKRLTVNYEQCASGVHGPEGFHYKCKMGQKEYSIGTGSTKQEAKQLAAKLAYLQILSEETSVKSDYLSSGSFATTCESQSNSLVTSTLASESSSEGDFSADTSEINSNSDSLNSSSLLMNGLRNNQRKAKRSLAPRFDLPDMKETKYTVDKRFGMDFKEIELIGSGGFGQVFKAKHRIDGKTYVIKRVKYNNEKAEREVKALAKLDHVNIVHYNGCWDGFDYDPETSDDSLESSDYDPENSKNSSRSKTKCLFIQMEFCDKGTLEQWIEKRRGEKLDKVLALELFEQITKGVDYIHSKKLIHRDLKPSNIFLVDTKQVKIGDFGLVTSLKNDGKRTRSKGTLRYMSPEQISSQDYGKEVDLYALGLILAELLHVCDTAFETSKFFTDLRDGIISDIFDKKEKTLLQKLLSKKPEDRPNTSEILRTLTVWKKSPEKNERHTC
Sequence of 320 wild-type protein kinases (Homo sapiens, UniProt P07333) (P07333 20-972): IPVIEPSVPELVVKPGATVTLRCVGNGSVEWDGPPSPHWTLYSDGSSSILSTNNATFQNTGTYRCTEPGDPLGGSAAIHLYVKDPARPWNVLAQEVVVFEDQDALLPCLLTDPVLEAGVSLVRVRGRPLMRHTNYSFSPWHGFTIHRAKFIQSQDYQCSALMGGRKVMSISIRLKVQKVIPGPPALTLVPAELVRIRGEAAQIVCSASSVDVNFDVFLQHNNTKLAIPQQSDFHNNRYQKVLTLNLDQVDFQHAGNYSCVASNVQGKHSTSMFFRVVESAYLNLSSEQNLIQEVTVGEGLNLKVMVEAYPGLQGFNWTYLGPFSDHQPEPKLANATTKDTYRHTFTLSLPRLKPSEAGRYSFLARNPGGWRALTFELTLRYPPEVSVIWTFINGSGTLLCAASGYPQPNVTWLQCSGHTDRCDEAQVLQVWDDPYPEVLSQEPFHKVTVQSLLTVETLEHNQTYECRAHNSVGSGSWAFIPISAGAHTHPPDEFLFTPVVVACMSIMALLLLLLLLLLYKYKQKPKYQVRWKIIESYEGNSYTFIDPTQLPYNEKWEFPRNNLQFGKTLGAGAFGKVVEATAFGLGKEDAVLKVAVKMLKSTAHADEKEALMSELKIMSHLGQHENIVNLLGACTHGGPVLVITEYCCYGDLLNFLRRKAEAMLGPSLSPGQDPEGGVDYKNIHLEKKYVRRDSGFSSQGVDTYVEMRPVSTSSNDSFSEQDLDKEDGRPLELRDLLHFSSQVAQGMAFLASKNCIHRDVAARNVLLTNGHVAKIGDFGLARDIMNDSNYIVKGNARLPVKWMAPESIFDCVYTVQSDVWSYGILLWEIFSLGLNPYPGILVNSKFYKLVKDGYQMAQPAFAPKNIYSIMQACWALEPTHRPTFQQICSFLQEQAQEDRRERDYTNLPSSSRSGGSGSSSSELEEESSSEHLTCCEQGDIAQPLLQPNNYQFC

With `C#Cc1cc(Nc2ncnc3cc(I)ccc23)ccc1Cl` [Compound 41] the Residual activity ([1]; EIF2AK2, 1.0E-06 M) was 58 % of control, the Residual activity ([1]; EIF2AK2, 1.0E-07 M) was 72 % of control and the “Residual activity, VRK2” value ([2]; assay conc. 1.0E-06 M) was 97 % of control. For the same compound, the “Residual activity, VRK2” value ([2]; assay conc. 1.0E-07 M) was 95 % of control, the “Residual activity, SGK2” value ([3]; assay conc. 1.0E-06 M) was 86 % of control and the “Residual activity, SGK2” value ([3]; assay conc. 1.0E-07 M) was 101 % of control. For the same compound, the Residual activity ([4]; 1.0E-06 M) was 123 % of control, the Residual activity ([4]; 1.0E-07 M) was 130 % of control and the “Residual activity, RON” value ([5]; assay conc. 1.0E-06 M) was 63 % of control. For the same compound, the “Residual activity, RON” value ([5]; assay conc. 1.0E-07 M) was 77 % of control, the Residual activity ([6]; EPHA8, 1.0E-06 M) was 118 % of control and the Residual activity ([6]; EPHA8, 1.0E-07 M) was 110 % of control. For the same compound, the Residual activity ([7]; 1.0E-06 M) was 121 % of control, the Residual activity ([7]; 1.0E-07 M) was 128 % of control and the “Residual activity, SGK3” value ([8]; assay conc. 1.0E-06 M) was 86 % of control. For the same compound, the “Residual activity, SGK3” value ([8]; assay conc. 1.0E-07 M) was 91 % of control, the Residual activity ([9]; ABL2, 1.0E-06 M) was 97 % of control and the Residual activity ([9]; ABL2, 1.0E-07 M) was 106 % of control. For the same compound, the “Residual activity, ZAK” value ([10]; assay conc. 1.0E-06 M) was 85 % of control, the “Residual activity, ZAK” value ([10]; assay conc. 1.0E-07 M) was 98 % of control and the Residual activity ([11]; CDK6/CycD1, 1.0E-06 M) was 98 % of control. For the same compound, the Residual activity ([11]; CDK6/CycD1, 1.0E-07 M) was 92 % of control, the Residual activity ([11]; CDK6/CycD3, 1.0E-06 M) was 103 % of control and the Residual activity ([11]; CDK6/CycD3, 1.0E-07 M) was 102 % of control.

In the case of `C#Cc1cc(Nc2ncnc3cc(OC)c(OC)cc23)ccc1Cl` [Compound 45], the Residual activity ([1]; EIF2AK2, 1.0E-06 M) is reported as 77 % of control, the Residual activity ([1]; EIF2AK2, 1.0E-07 M) is reported as 77 % of control and the “Residual activity, VRK2” value ([2]; assay conc. 1.0E-06 M) is reported as 232 % of control. The “Residual activity, VRK2” value ([2]; assay conc. 1.0E-07 M) was 87 % of control, the “Residual activity, SGK2” value ([3]; assay conc. 1.0E-06 M) was 98 % of control and the “Residual activity, SGK2” value ([3]; assay conc. 1.0E-07 M) was 94 % of control. The Residual activity ([4]; 1.0E-06 M) was 108 % of control, the Residual activity ([4]; 1.0E-07 M) was 127 % of control and the “Residual activity, RON” value ([5]; assay conc. 1.0E-06 M) was 82 % of control. For the same compound, the “Residual activity, RON” value ([5]; assay conc. 1.0E-07 M) was 90 % of control, the Residual activity ([6]; EPHA8, 1.0E-06 M) was 103 % of control and the Residual activity ([6]; EPHA8, 1.0E-07 M) was 112 % of control. For the same compound, the Residual activity ([7]; 1.0E-06 M) was 105 % of control, the Residual activity ([7]; 1.0E-07 M) was 124 % of control and the “Residual activity, SGK3” value ([8]; assay conc. 1.0E-06 M) was 89 % of control. For the same compound, the “Residual activity, SGK3” value ([8]; assay conc. 1.0E-07 M) was 93 % of control, the Residual activity ([9]; ABL2, 1.0E-06 M) was 68 % of control and the Residual activity ([9]; ABL2, 1.0E-07 M) was 96 % of control. The “Residual activity, ZAK” value ([10]; assay conc. 1.0E-06 M) was 80 % of control, the “Residual activity, ZAK” value ([10]; assay conc. 1.0E-07 M) was 100 % of control and the Residual activity ([11]; CDK6/CycD1, 1.0E-06 M) was 86 % of control. The Residual activity ([11]; CDK6/CycD1, 1.0E-07 M) was 96 % of control, the Residual activity ([11]; CDK6/CycD3, 1.0E-06 M) was 105 % of control and the Residual activity ([11]; CDK6/CycD3, 1.0E-07 M) was 95 % of control.

From paper PMC9329436, “Optimization of the 4-anilinoquin(az)oline scaffold as epidermal growth factor receptor (EGFR) inhibitors for chordoma utilizing a toxicology profiling assay platform” (Scientific Reports, 2022)
